Results: article PMC3098219, “Protective Efficacy of Serially Up-Ranked Subdominant CD8^+ T Cell Epitopes against Virus Challenges” (PLoS Pathogens, 2011)
Entries after “also recorded” stand apart in the source; their conditions may differ.

Tests used:
[1] = test system: splenocytes of DNA-immunized mice; assay: IFN-γ ELISPOT and ICS with modified HIVA immunogens; type: cell-based, BALB/c mice; details: dHmP-immunized group; ELISPOT, ICS and in vivo killing
From the text: To further investigate this phenomenon, we serially inactivated CD8^+ T cell epitopes in the order of their immunodominance. To maintain the HIVA protein integrity, epitopes P and G1 were mutated rather than deleted by substituting the anchor amino acid residues required for a strong binding to the H-2K^d molecule (Figure 2A). The resulting double and triple mutants of the HIVA immunogen were called dHmP and dHmPG1, respectively. […] Groups of BALB/c mice were immunized 2x using the modified HIVA immunogens vectored by plasmid DNA and the immune responses were measured in IFN-γ ELISPOT, ICS and in vivo killing assays. […] Second, consistently in all three assays, immune responses directed against subdominant epitopes were serially recovered, however, not to the same extent. […] Because the response to the G2 epitope remained undetectable even in the dHmPG1-immunized mice, overlapping 15/11 peptides across the whole HIVA immunogen were used again to search for another yet unidentified epitope of a higher rank. […] (Figure 2D). […] Thus, step-wise deletion of immunodominant CD8^+ T cell epitopes restores responses to the subdominant epitopes in the hierarchy.
Figure 2 Serial up-ranking of epitopes. A) Groups of 4 BALB/c mice were immunized 2x i.m. with 100 µg of DNA at a 2-wk interval. Two wk later, splenocytes were assessed in an ELISPOT assay for production of IFN-γ upon re-stimulation with peptides indicated above. Shown are schematic diagrams of HIVA and the three modified immunogens with representative examples of the ELISPOT well images. B) Mice were immunized as in A and 4 wk later, splenocytes were assessed in an ICS assay to measure CD8^+ T cells secreting IFN-γ upon re-stimulation with peptide indicated in the top left corner. Group means±SD are shown. C) Identical groups of mice were assessed for cytolytic activity in an in vivo lysis of syngeneic peptide-pulsed cells transferred into naïve or vaccinated animals. Representative examples of dot plots are shown (top) and the peptide-specific lyses are expressed as a group mean±SD (bottom). D) Groups of 3 BALB/c mice were immunized 3x with 100 µg of DNA indicated above the dot plot in 2-wk intervals and the designated NPP peptide-specific responses were assessed by IFN-γ ICS 2 wk later. The FACS plots are representative examples with IFN-γ producing cells as a percentage of CD8^+ splenocytes shown in the top right panels. All experiments were repeated at least once. TEXT PRINTED IN THE PICTURE: (D) HIVA: 0.05 | (D) HIVAdH: 0.09 | (D) dHmP: 0.08 | (D) dHmPG1: 0.57 DOUBTS OF THE COPYIST ABOUT THIS PICTURE: Panel D: the numbers in the top right quadrants of the CD8 / IFN-γ dot plots are printed without a measure or unit, so they are copied as bare numbers.
The ELISPOT assay was performed using the Mouse IFN-γ ELISpot kit (Mabtech) according to the manufacturer's instructions. Spots were visualised using sequential applications of a biotin-conjugated secondary anti-IFN-γ mAb (R4-6A2, Rat IgG1), an alkaline phosphatase and a chromogenic substrate (Bio-Rad) and counted using the AID ELISpot Reader System (Autoimmun Diagnostika).

H-2K^d = H-2K^d (Mus musculus, UniProt P01902); details: ref [34]; cited from earlier work
Chain of H-2K^d (P01902 whole entry, looked up): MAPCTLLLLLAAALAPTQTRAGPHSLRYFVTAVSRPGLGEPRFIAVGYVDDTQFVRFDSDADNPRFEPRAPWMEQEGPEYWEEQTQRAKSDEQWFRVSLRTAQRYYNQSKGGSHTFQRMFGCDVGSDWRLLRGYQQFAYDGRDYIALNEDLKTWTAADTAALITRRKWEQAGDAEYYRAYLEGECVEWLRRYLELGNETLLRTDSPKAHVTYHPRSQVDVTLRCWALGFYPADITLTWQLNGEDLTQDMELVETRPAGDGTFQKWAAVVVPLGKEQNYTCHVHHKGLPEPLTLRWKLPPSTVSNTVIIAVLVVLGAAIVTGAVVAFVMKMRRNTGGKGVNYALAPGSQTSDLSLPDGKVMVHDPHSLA
From the text: Our research interests lie in development of the T cell component of HIV-1 vaccines stimulating protective CD8^+ T cell responses. The first-generation T cell immunogen, designated HIVA (Figure 1A), has served as an extremely useful tool for iterative improving of CD8^+ T cell induction by experimental vaccines in mice, non-human primates and humans [reviewed in [30]]. To increase the power of T cell analysis and study the role of subdominant determinants, H-2^d class I-restricted epitopes contained in the HIVA immunogen were mapped in detail. Thus, the most immunodominant epitope of ...

[2] = test system: syngeneic peptide-pulsed cells; assay: in vivo killing assay (lysis of syngeneic peptide-pulsed cells); set-up: species or system BALB/c mice; details: HIVAdH vaccinated relative to HIVA vaccination; Figure 1F
[3] = test system: splenocytes of pTHr.HIVA immunized mice; assay: IFN-γ ELISPOT immunogenicity of HIVA; type: cell-based, BALB/c mice; details: Figure 1B and D top
[4] = test system: CD8^+ splenocytes of immunized mice; type: cell-based, BALB/c mice; details: HIVAdH vs HIVA immunization; ex vivo ICS, Figure 1D
[5] = test system: CD8^+ splenocytes of DNA-immunized mice; assay: ICS T cell avidity (peptide titration, CD107a/b and IFN-γ); type: cell-based, BALB/c mice; details: Figure 3B; individual determinants when dominant: H in group HIVA, P in HIVAdH, G1 in dHmP, NPP in dHmPG1; 3x 100 µg DNA; 5 h
Experimental: T2 cell lines were incubated with decreasing peptide concentrations ranging from 100 µM to 0.1 µM indicated above the H peptide histogram and the cell surface peptide-loaded MHC complexes were detected by fluorochrome-conjugated mAb (DB Biosciences) and quantified using FACS flow cytometer. B) and C) Groups of 3 BALB/c mice were given 3x immunizations using 100 µg of DNA expressing the index or mutated forms of HIVA at 3 wk intervals and their T cell responses were analyzed 4 wk later. B) Splenocytes were assessed in an ICS assay using peptides indicated above the graphs at concentrations ranging from 10 to 10^−8 µM for 5 h. Cells were gated on IFN-γ-producing CD8^+ T cell populations positive (top) or negative (bottom) for CD107a/b. Note the different y-axis scales on the top and bottom graphs. C) The response kinetics of CD8^+ T cells re-stimulated with 0.1 µM peptides was assessed in an ICS assay in 1-h intervals for a period of 4 h. Data shown are as mean±SD of [CD8^+CD107a/b^+IFN-γ^+ cells at each time point (%)] ÷ [CD8^+CD107a/b^+IFN-γ^+ at 4 h (%)]. One out of two independent experiments is shown.
We also measured avidities of T cell responses recovered through the sequential HIVA epitope up-ranking. First, responsiveness of immune splenocytes following 3 plasmid DNA deliveries was measured in an ICS assay upon re-stimulation with peptide concentrations ranging from 10^−8 to 10 µM for 5 h (Figure 3A).

CD8^+ T cells = assay: Immunodominance hierarchy of T cell responses to HIVA-derived epitopes; type: cell-based, BALB/c mice; details: 10 d after immunization
CD8^+CD107a/b^+ T cells = assay: Multicolour flow cytometry after mixed or split vaccination; type: cell-based, BALB/c mice
EcoHIV/NDK = EcoHIV/NDK challenge; details: Figure 7C and D; 2x 100 µg DNA, challenge 5 d later; splenocytes and peritoneal macrophages, qPCR

AMQMLKDTI [G1]
restoration of G1-specific T cell responses [1]: significant restoration of G1-specific T cell responses, now comparable to those against H and restored P
MHC class I restriction (H-2K^d) (H-2K^d): H-2K^d-restricted
in vivo lysis of peptide-pulsed targets [2]: increased in vivo lysis
T cell response to G1 from HIVA [3]: hardly detectable responses
frequencies of IFN-γ-producing CD8^+ cells [4]: noticeably, though not significantly increased
peak IFN-γ^+CD107a/b^+CD8^+ cell frequencies at 10 µM peptide [5]: 3.8 % of total CD8^+ splenocytes
hierarchy of T cell responses against HIVA-derived epitopes (CD8^+ T cells): H>P>>G1>NPP>>G2
G1-specific response relative to epitopes H and P (CD8^+CD107a/b^+ T cells; Figure 4B groups 4 and 5, HIVA-dHmP and dHmP-HIVA prime-boost, 23-wk rest, WR.HIVA re-stimulation): significantly increased
anti-G1 responses (CD8^+CD107a/b^+ T cells; Figure 4B groups 7 and 9, pre-mixed vaccines injected into 2 sites): failed to induce anti-G1 responses
protection against EcoHIV/NDK challenge (EcoHIV/NDK): sufficient to induce protective efficacy; also recorded: enhanced clearance of EcoHIV/NDK infection
